US20240383915A1, “OXAZEPINE COMPOUNDS AND USES THEREOF IN THE TREATMENT OF CANCER” (Genentech, Inc., priority 2021, published 2024)
Like-named read-outs stand apart in the source and are kept apart here.

Columns and labels:
KRas(G12V) = KRas(G12V) (Homo sapiens (Human), UniProt P01116, G12V); test: KRas(G12V) GDP HTRF (BODIPY-GDP exchange TR-FRET); format: biochemical
KRas = KRas (Homo sapiens (Human), UniProt P01116); test: KRas GDP HTRF (BODIPY-GDP exchange TR-FRET); format: biochemical
Summary of the method: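 Inhibition of SOS1-mediated exchange of BODIPY-GDP on KRAS G12D, started with 3 nM recombinant human SOS1 and 300 nM BODIPY-GDP and read after 60 min. TR-FRET excitation 337 nm, ratio 520/490 nm ×10,000. IC50 from 4-parameter Hill fit of normalized data.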

SW480 cells = test: SW480 proliferation assay; format: cell-based; details: read-out: SW480 Prolif IC50 (G12V)
PC-9 cells = test: PC9 proliferation assay; format: cell-based, human; details: read-out: PC9 Prolif IC50 (G12V)

KRas(G12V), sequence (P01116-2 other isoform, or with tags, fused parts or gaps G12V): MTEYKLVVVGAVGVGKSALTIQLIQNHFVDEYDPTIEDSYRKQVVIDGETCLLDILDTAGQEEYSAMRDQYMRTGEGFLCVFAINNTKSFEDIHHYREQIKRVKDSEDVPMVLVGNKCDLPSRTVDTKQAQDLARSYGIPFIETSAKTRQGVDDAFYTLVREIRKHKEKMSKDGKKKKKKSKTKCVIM
KRas, sequence (P01116-2 other isoform, or with tags, fused parts or gaps): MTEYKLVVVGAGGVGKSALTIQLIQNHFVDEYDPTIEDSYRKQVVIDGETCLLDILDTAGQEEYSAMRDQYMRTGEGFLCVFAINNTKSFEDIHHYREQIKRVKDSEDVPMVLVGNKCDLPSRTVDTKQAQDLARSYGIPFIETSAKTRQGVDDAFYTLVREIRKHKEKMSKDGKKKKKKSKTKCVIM

Row | SMILES | IC50 (KRas(G12V)) [nM] | IC50 (KRas) [nM] | IC50 (SW480 cells; Homo sapiens, SW480, SW480) [nM] | IC50 (PC-9 cells; Homo sapiens, PC-9, PC9) [nM] | IC50 (SW480 cells; SW480) [nM] | IC50 (PC-9 cells; PC9) [nM]
1 | Cc1cc(N)nc(-c2c(Cl)c3c4c(nc(OC[C@@]56CCN5CC(F)(F)C6)nc4c2F)N([C@H](C)c2cccnc2N)CCO3)c1C(F)(F)F (atropisomer, axis not shown) [Example 114a, 6-((R)-4-((R)-1-(2-aminopyridin-3-yl)ethyl)-8-chloro-2-(((S)-3,3-difluoro-1-azabicyclo[3.2.0]heptan-5-yl)methoxy)-10-fluoro-5,6-dihydro-4H-[1,4]oxazepino[5,6,7-de]quinazolin-9-yl)-4-methyl-5-(trifluoromethyl)pyridin-2-amine] | 0.24 | 0.39 | 3.2 | 7000 | – | –
2 | Cc1cc(N)nc(-c2c(Cl)c3c4c(nc(N5CC6(COCCN6)C5)nc4c2F)N([C@H](C)c2cccnc2N)CCO3)c1C(F)(F)F (atropisomer, axis not shown) [Example 90, 6-((R)-4-((R)-1-(2-aminopyridin-3-yl)ethyl)-8-chloro-10-fluoro-2-(8-oxa-2,5-diazaspiro[3.5]nonan-2-yl)-5,6-dihydro-4H-[1,4]oxazepino[5,6,7-de]quinazolin-9-yl)-4-methyl-5-(trifluoromethyl)pyridin-2-amine] | 0.22 | 0.99 | 390 | 6400 | – | –
3 | CCO[C@H]1CN2CCC[C@@]2(COc2nc3c4c(c(Cl)c(-c5nc(N)cc(C)c5C(F)(F)F)c(F)c4n2)OCCN3[C@H](C)c2cccnc2N)C1 (atropisomer, axis not shown; (aS)) [Example 89, 6-((R)-4-((R)-1-(2-aminopyridin-3-yl)ethyl)-8-chloro-2-(((2R,7aS)-2-ethoxytetrahydro-1H-pyrrolizin-7a(5H)-yl)methoxy)-10-fluoro-5,6-dihydro-4H-[1,4]oxazepino[5,6,7-de]quinazolin-9-yl)-4-methyl-5-(trifluoromethyl)pyridin-2-amine] | 0.075 | 0.17 | 7.2 | 2400 | – | –
4 | Cc1cc(N)nc(-c2c(Cl)c3c4c(nc(OC[C@@H]5C[C@@H](F)CN5C)nc4c2F)N([C@@H]2CCCc4ccnc(N)c42)CCO3)c1C(F)(F)F (atropisomer, axis not shown) [Example 132, (R)-8-((R)-9-(6-amino-4-methyl-3-(trifluoromethyl)pyridin-2-yl)-8-chloro-10-fluoro-2-(((2S,4R)-4-fluoro-1-methylpyrrolidin-2-yl)methoxy)-5,6-dihydro-4H-[1,4]oxazepino[5,6,7-de]quinazolin-4-yl)-5,6,7,8-tetrahydroisoquinolin-1-amine] | 0.13 | 0.273 | 39 | 3200 | – | –
5 | C[C@H](c1cccnc1N)N1CCOc2c(Cl)c(-c3cc(O)cc4ccccc34)c(F)c3nc(OC[C@@]45CCCN4C[C@H](F)C5)nc1c23 [Example 119, 4-(4-((R)-1-(2-aminopyridin-3-yl)ethyl)-8-chloro-10-fluoro-2-(((2R,7aS)-2-fluorotetrahydro-1H-pyrrolizin-7a(5H)-yl)methoxy)-5,6-dihydro-4H-[1,4]oxazepino[5,6,7-de]quinazolin-9-yl)naphthalen-2-ol] | 0.05 | 0.14 | 16 | 3000 | – | –
6 | Cc1cc(N)nc(-c2c(Cl)c3c4c(nc(OC[C@@H]5CCC(=O)N5)nc4c2F)N([C@H](C)c2cccnc2N)CCO3)c1C(F)(F)F (atropisomer, axis not shown) [Example 121, (S)-5-((((R)-9-(6-amino-4-methyl-3-(trifluoromethyl)pyridin-2-yl)-4-((R)-1-(2-aminopyridin-3-yl)ethyl)-8-chloro-10-fluoro-5,6-dihydro-4H-[1,4]oxazepino[5,6,7-de]quinazolin-2-yl)oxy)methyl)pyrrolidin-2-one] | 0.07 | 0.437 | 1100 | 4900 | – | –
7 | Cc1cc(N)nc(-c2c(Cl)c3c4c(nc(OC[C@]56CCN5CC(F)(F)C6)nc4c2F)N([C@H](C)c2cccnc2N)CCO3)c1C(F)(F)F (atropisomer, axis not shown) [Example 114b, 6-((R)-4-((R)-1-(2-aminopyridin-3-yl)ethyl)-8-chloro-2-(((R)-3,3-difluoro-1-azabicyclo[3.2.0]heptan-5-yl)methoxy)-10-fluoro-5,6-dihydro-4H-[1,4]oxazepino[5,6,7-de]quinazolin-9-yl)-4-methyl-5-(trifluoromethyl)pyridin-2-amine] | 0.22 | 0.46 | 3 | 7600 | – | –
8 | Nc1ncccc1CN1CCOc2c(Cl)c(-c3cccc(CO)c3)cc3nc(OC[C@@]45CCCN4C[C@H](F)C5)nc1c23 [Example 64, (3-(4-((2-aminopyridin-3-yl)methyl)-8-chloro-2-(((2R,7aS)-2-fluorotetrahydro-1H-pyrrolizin-7a(5H)-yl)methoxy)-5,6-dihydro-4H-[1,4]oxazepino[5,6,7-de]quinazolin-9-yl)phenyl)methanol] | 290 | 2700 | 17000 | 5400 | – | –
9 | Cc1cc(N)nc(-c2c(Cl)c3c4c(nc(OC[C@@H]5CC[C@H]6CN(S(C)(=O)=O)CCN56)nc4c2F)N([C@H](C)c2cccnc2N)CCO3)c1C(F)(F)F (atropisomer, axis not shown; (aS)) [Example 125a, 6-((R)-4-((R)-1-(2-aminopyridin-3-yl)ethyl)-8-chloro-10-fluoro-2-(((6S,8aS)-2-(methylsulfonyl)octahydropyrrolo[1,2-a]pyrazin-6-yl)methoxy)-5,6-dihydro-4H-[1,4]oxazepino[5,6,7-de]quinazolin-9-yl)-4-methyl-5-(trifluoromethyl)pyridin-2-amine] | 0.12 | 0.218 | 23 | 3700 | – | –
10 | CC(=O)N1CCN2[C@H](COc3nc4c5c(c(Cl)c(-c6nc(N)cc(C)c6C(F)(F)F)c(F)c5n3)OCCN4[C@H](C)c3cccnc3N)CC[C@H]2C1 (atropisomer, axis not shown; (aS)) [Example 123a, 1-((6S,8aS)-6-((((R)-9-(6-amino-4-methyl-3-(trifluoromethyl)pyridin-2-yl)-4-((R)-1-(2-aminopyridin-3-yl)ethyl)-8-chloro-10-fluoro-5,6-dihydro-4H-[1,4]oxazepino[5,6,7-de]quinazolin-2-yl)oxy)methyl)hexahydropyrrolo[1,2-a]pyrazin-2(1H)-yl)ethan-1-one] | 0.13 | 0.15 | 30 | 6500 | – | –
11 | Cc1cc(N)nc(-c2c(Cl)c3c4c(nc(OC[C@]5(C)CC(F)(F)CN5C)nc4c2F)N([C@H](C)c2cccnc2N)CCO3)c1C(F)(F)F (atropisomer, axis not shown) [Example 122a, 6-((R)-4-((R)-1-(2-aminopyridin-3-yl)ethyl)-8-chloro-2-(((S)-4,4-difluoro-1,2-dimethylpyrrolidin-2-yl)methoxy)-10-fluoro-5,6-dihydro-4H-[1,4]oxazepino[5,6,7-de]quinazolin-9-yl)-4-methyl-5-(trifluoromethyl)pyridin-2-amine] | 0.5 | 4.49 | 180 | 2900 | – | –
12 | Cc1cc(N)nc(-c2c(Cl)c3c4c(nc(OC[C@@H]5C[C@@H]6C[N@@]5CCO6)nc4c2F)N([C@H](C)c2cccnc2N)CCO3)c1C(F)(F)F (atropisomer, axis not shown) [Example 92a, 6-((R)-2-(((1R,5R,7S)-4-oxa-1-azabicyclo[3.2.1]octan-7-yl)methoxy)-4-((R)-1-(2-aminopyridin-3-yl)ethyl)-8-chloro-10-fluoro-5,6-dihydro-4H-[1,4]oxazepino[5,6,7-de]quinazolin-9-yl)-4-methyl-5-(trifluoromethyl)pyridin-2-amine] | 0.07 | 0.0648 | 37 | 1800 | – | –
13 | Cc1cc(N)nc(-c2c(Cl)c3c4c(nc(OC[C@@H]5C[C@@]6(CN5C)CC6(F)F)nc4c2F)N([C@H](C)c2cccnc2N)CCO3)c1C(F)(F)F (atropisomer, axis not shown) [Example 67, 6-((R)-4-((R)-1-(2-aminopyridin-3-yl)ethyl)-8-chloro-2-(((3S,6S)-1,1-difluoro-5-methyl-5-azaspiro[2.4]heptan-6-yl)methoxy)-10-fluoro-5,6-dihydro-4H-[1,4]oxazepino[5,6,7-de]quinazolin-9-yl)-4-methyl-5-(trifluoromethyl)pyridin-2-amine] | 0.17 | 0.55 | 3.7 | 2800 | – | –
14 | Cc1cc(N)nc(-c2c(Cl)c3c4c(nc(OC[C@H]5CN(C)CCO5)nc4c2F)N([C@H](C)c2cccnc2N)CCO3)c1C(F)(F)F (atropisomer, axis not shown) [Example 124, 6-((R)-4-((R)-1-(2-aminopyridin-3-yl)ethyl)-8-chloro-10-fluoro-2-(((R)-4-methylmorpholin-2-yl)methoxy)-5,6-dihydro-4H-[1,4]oxazepino[5,6,7-de]quinazolin-9-yl)-4-methyl-5-(trifluoromethyl)pyridin-2-amine] | 0.1 | 0.204 | 70 | 2700 | – | –
15 | Cc1cc(N)nc(-c2c(Cl)c3c4c(nc(OC[C@@]56CCCN5C[C@H](F)C6)nc4c2F)N(Cc2cccnc2N)CCO3)c1C(F)(F)F (single isomer, unassigned) [Example 42a] | 0.3 | 0.25 | – | – | 85 | 1300
